Assay results taken from patent US20230271142A1, “METHODS OF PREPARING SOLID PARTICULATE MATERIALS” (MICROPORE TECHNOLOGIES LIMITED, priority 2020, published 2023).
Where “and” joins values, the source holds several entries; their conditions need not be identical. Equal values may be shown once.

How the values were obtained:
Assay type in all cases: physicochemical
[1] = Particle size distribution of amorphous telmisartan produced via LDC and CXF (laser diffraction); conditions: three runs; for D10 / D50 / D90 / Volume Mean D[4,3]: 10 μm pores, ± standard deviation; for StDev: of the size distribution
Experimental: Reproducibility of the Production of Amorphous Telmisartan and Translation from Stirred Cell LDC to Continuous Crossflow CXF Devices A solution of telmisartan in DMSO (0.06 g/ml) was prepared for use as the organic phase. An aqueous phase of 50 ml of DI water was prepared. The LDC was configured with a membrane with 10 μm pores, spaced 200 μm apart in a square grid, in a ring sat underneath a stirrer paddle. […] The stirrer was set to […] (1750 rpm). […] The LDC runs were repeated three times. Additionally, a solution of telmisartan in DMSO (0.06 g/ml) was prepared as an organic phase. An aqueous phase was composed of distilled water. A CXF was configured with a membrane with 10 μm pores, spaced 200 μm apart in a square grid. A 9.5 mm insert was used. The materials were pumped using gear pumps. The aqueous continuous phase was pumped through the annulus at the center of the membrane at a rate of 464 ml/min. The organic disperse phase was pumped through the top port of the device at a rate of 58 mL/min, through the membrane pores and into the flow of continuous phase. This preserved the 8:1 CP:DP ratio used in the LDC experiments and generated a similar shear profile. The solution was collected in a beaker and stirred with an overhead stirrer at 500 rpm for 5-10 minutes. The CXF runs were repeated three times. The particle size distributions of material produced on the LDC are shown in Table 6, with errors given as the standard deviations, alongside those for the CXF runs.

[2] = Effect of membrane pore diameter on size distribution of telmisartan particles (CXF, laser diffraction); conditions: for D10 / D50 / D90 / Volume Mean: CXF, DP 58 mL/min
Experimental: A solution of telmisartan in DMSO (0.06 g/ml) was prepared as the organic phase. The aqueous phase was composed of distilled water. The CXF was configured with membranes of different pore sizes that included 5, 10, 20 and 40 μm pores, spaced 200 μm apart in a square grid. A 9.5 mm insert was used. The materials were pumped using gear pumps. The aqueous continuous phase was pumped through the annulus at the center of the membrane at a rate of 464 ml/min. The organic disperse phase was pumped through the top port of the device at a rate of 58 mL/min, through the membrane pores and into the flow of continuous phase. The solution was collected in a beaker and stirred with an overhead stirrer at 500 rpm for 5-10 minutes.

[3] = Effect of disperse phase flow rate on size distribution of telmisartan particles (CXF, laser diffraction); conditions: for D10 / D50 / D90 / Volume Mean: CXF, 10 μm pores
Experimental: A solution of telmisartan in DMSO (0.06 g/ml) was prepared as the organic phase. The aqueous phase was composed of distilled water. The CXF was configured with a membrane with 10 μm pores, spaced 200 μm apart in a square grid. A 9.5 mm insert was used. The materials were pumped using gear pumps. The aqueous continuous phase was pumped through the annulus at the center of the membrane at […]. The organic disperse phase was pumped through the top port of the device at rates of […], through the membrane and into the flow of continuous phase that was calibrated. The solution was collected in a beaker and stirred with an overhead stirrer at 500 rpm for 5-10 minutes.

[4] = Crystal size distribution of piroxicam crystals from CXF by laser diffraction (Beckmann Coulter LS-230); conditions: 5 μm pores
Experimental: The CXF was configured with a membrane with 5 μm pores, spaced 45 μm apart in a square grid. A 9.5 mm insert was used. The materials were pumped using gear pumps. The aqueous continuous phase was pumped at […] through the annulus at the center of the membrane. The organic disperse phase was pumped at 17 mL/min through the top port of the device, through the membrane and into the flow of continuous phase. The solution was collected in a 250 ml beaker and stirred with an overhead stirrer at 500 rpm for 10-15 minutes. The crystals were analyzed via microscopy and Laser Diffraction (Beckmann Coulter LS-230). The results are relayed in FIGS. 4 and 5 and Table 2.

[5] = Effect of aqueous phase surfactant on carbamazepine crystals produced via LDC (Jorin ViPA); conditions: for D10 / D50 / D90 / Volume Mean: LDC
Experimental: 0.4 g of Carbamazepine was dissolved in 10 ml methanol in a beaker at 45° C. to make up the organic phase. In one instance, 0.5% Pluronic PEG P123 (Mn˜5,800) in DI water was used as the aqueous phase. In another instance, 0.5% HPMC (Mn˜10,000) in DI water was used as the aqueous phase.
The LDC was configured with a membrane with 10 μm pores, spaced 200 μm apart in a ring formation. The stirrer speed was set at 14V (1750 rpm), and the organic phase injection rate set at 10 ml/min. The line was primed with organic phase and the aqueous was poured into the stirred cell. The organic phase addition was started and ended when 3 ml of DP was injected.
The solution was left to stir until precipitation was visible. The crystals were analyzed via microscopy and Jorin ViPA. The results are relayed in FIG. 18 and Table 7.

[6] = Crystal size distribution of metformin crystals produced via LDC (Jorin ViPA)
Experimental: 0.4 g of Metformin was dissolved in 10 ml methanol in a beaker to make up the organic phase. 0.5% Tween 20 in […] was used as the aqueous phase.
The LDC was configured with a membrane with 10 μm pores, spaced 200 μm apart in a ring-shape. The stirrer speed was set at 14V (1750 rpm), and the injection rate set at 10 ml/min. The line was primed with organic phase and the aqueous phase was poured into the dispersion cell. Addition of the organic phase was started and ended when 3 ml of DP was injected.
The solution was left to stir until precipitation was visible. The crystals were analyzed via microscopy and Jorin ViPA. The results are relayed in FIG. 23 and Table 9.

[7] = Crystal size distribution of paracetamol crystals from CXF by Jorin Visual Particle Size Analyser (ViPA)
Experimental: A solution of paracetamol in ethanol (0.3 g/ml) was prepared, alongside an aqueous phase consisting of 0.5% wt. PEG […] in DI water. The CXF was configured with a membrane with 10 μm pores, spaced 200 μm apart in a square grid. A 9.5 mm insert was used. The materials were pumped using gear pumps. The aqueous continuous phase was pumped through the annulus at the center of the membrane. The organic disperse phase was pumped through the top port of the device calibrated at a rate of […], through the membrane and into the flow of continuous phase at 200 ml/min. The solution was collected in a beaker and stirred with an overhead stirrer at 500 rpm for 10-15 minutes. The experiment was repeated 3 times. The resultant crystal suspension was examined via microscopy (see FIG. 1), and Jorin Visual Particle Size Analyser (ViPA) for crystal size and uniformity, (FIG. 2 and Table 1).

[8] = Crystal size distribution of prednisolone crystals from CXF by Jorin ViPA; conditions: 10 μm pores
Experimental: 8 g of Prednisolone was dissolved in 200 ml of ethanol in a beaker at 55° C. to make up the organic phase. 0.5% PVA (Mowiol 23-88) in DI water was used as the aqueous phase.
The CXF was configured with a membrane with 10 μm pores, spaced 200 μm apart in a square grid. A 9.5 mm insert was used. The materials were pumped using gear pumps, calibrated so the aqueous continuous phase flow was […] and the organic disperse phase flow was 28 mL/min.
The aqueous continuous phase was pumped through the annulus at the center of the membrane. The organic disperse phase, held at 55° C., was pumped through the top port of the device, through the membrane pores and into the flow of continuous phase.
The resultant solution was collected in a 500 ml beaker and stirred with an overhead stirrer at 500 rpm for 10-15 minutes. The crystals were analyzed via microscopy and Jorin ViPA. The results are relayed in FIGS. 6 and 7 and Table 3.

[9] = 10 μm pore membrane (average of three)
[10] = disperse phase 58 mL/min (average of three)
[11] = volume distribution, ethanol solution into 0.5% HPMC water
[12] = aqueous phase 0.5% HPMC (form III)
[13] = aqueous phase 0.5% P123 (form II)
[14] = 10 μm pores, methanol solution into 0.5% Tween 20 in acetonitrile
[15] = Average ± Standard Deviation of 3 runs
[16] = CXF, 10 μm pores, Average ± Standard Deviation of 3 runs
[17] = volume distribution, CXF, 10 μm pores, ethanol solution into 0.5% PEG P123 water, single runs 1-3
[18] = volume distribution, ethanol solution 55° C. into 0.5% PVA water

Structure (SMILES): CCCc1nc2c(C)cc(-c3nc4ccccc4n3C)cc2n1Cc1ccc(-c2ccccc2C(=O)O)cc1 [Telmisartan, telmisartan]
- D10 ([1]; CXF): 7.359 ± 1.096 μm
- D50 ([1]; CXF): 15.66 ± 1.558 μm
- D90 ([1]; CXF): 28.0 ± 2.091 μm
- Volume Mean D[4,3] ([1]; CXF): 17.11 ± 1.538 μm
- CV ([1]; CXF): 50.57 ± 3.09%
- Span ([1]; CXF): 1.389 ± 0.070
- D10 ([1]; LDC): 6.952 ± 0.357 μm
- D50 ([1]; LDC): 14.32 ± 0.693 μm
- D90 ([1]; LDC): 26.43 ± 1.268 μm
- Volume Mean D[4,3] ([1]; LDC): 15.79 ± 0.755 μm
- CV ([1]; LDC): 51.07 ± 0.937%
- Span ([1]; LDC): 1.360 ± 0.028
- StDev ([1]; CXF): 8.565 ± 0.275 μm
- StDev ([1]; LDC): 8.066 ± 0.430 μm
- C.V ([2]; 5 μm pore membrane): 53.31%
- C.V [2, 9]: 50.06%
- C.V ([2]; 20 μm pore membrane): 57.77%
- C.V ([2]; 40 μm pore membrane): 56.41%
- D10 ([2]; 5 μm pore membrane): 6.506 μm
- D50 ([2]; 5 μm pore membrane): 13.01 μm
- D90 ([2]; 5 μm pore membrane): 22.83 μm
- Volume Mean ([2]; 5 μm pore membrane): 14.31 μm
- D10 [2, 9]: 7.359 μm
- D50 [2, 9]: 15.66 μm
- D90 [2, 9]: 28.00 μm
- Volume Mean [2, 9]: 17.11 μm
- D10 ([2]; 20 μm pore membrane): 6.555 μm
- D50 ([2]; 20 μm pore membrane): 18.72 μm
- D90 ([2]; 20 μm pore membrane): 37.68 μm
- Volume Mean ([2]; 20 μm pore membrane): 20.60 μm
- D10 ([2]; 40 μm pore membrane): 8.451 μm
- D50 ([2]; 40 μm pore membrane): 23.16 μm
- D90 ([2]; 40 μm pore membrane): 45.99 μm
- Volume Mean ([2]; 40 μm pore membrane): 25.42 μm
- D10 ([3]; disperse phase 15 mL/min): 4.653 μm
- D50 ([3]; disperse phase 15 mL/min): 10.11 μm
- D90 ([3]; disperse phase 15 mL/min): 15.76 μm
- Volume Mean ([3]; disperse phase 15 mL/min): 10.17 μm
- D10 ([3]; disperse phase 29 mL/min): 4.981 μm
- D50 ([3]; disperse phase 29 mL/min): 10.09 μm
- D90 ([3]; disperse phase 29 mL/min): 18.9 μm
- Volume Mean ([3]; disperse phase 29 mL/min): 11.79 μm
- D10 [3, 10]: 7.359 μm
- D50 [3, 10]: 15.66 μm
- D90 [3, 10]: 28.00 μm
- Volume Mean [3, 10]: 17.11 μm
- Span ([3]; disperse phase 15 mL/min): 1.099
- Span ([3]; disperse phase 29 mL/min): 1.379
- Span [3, 10]: 1.318

Structure (SMILES): CN1C(C(=O)Nc2ccccn2)=C(O)c2ccccc2S1(=O)=O [Piroxicam]
- Span [4]: 1.78
- Mean ([4]; volume distribution): 6.978 μm
- D10 [4, 11]: 1.240 μm
- D50 [4, 11]: 6.562 μm
- D90 [4, 11]: 12.96 μm

Structure (SMILES): NC(=O)N1c2ccccc2C=Cc2ccccc21 [Carbamazepine]
- Span ([5]; 0.5% HPMC): 1.10
- Span ([5]; 0.5% P123): 0.81
- D10 [5, 12]: 28.90 μm
- D50 [5, 12]: 44.92 μm
- D90 [5, 12]: 78.16 μm
- Volume Mean [5, 12]: 48.84 μm
- D10 [5, 13]: 29.92 μm
- D50 [5, 13]: 42.37 μm
- D90 [5, 13]: 64.09 μm
- Volume Mean [5, 13]: 45.79 μm

Structure (SMILES): CN(C)C(=N)N=C(N)N [Metformin]
- Span [6]: 1.09
- Size Mean ([6]; 10 μm pores): 12.430 μm
- Volume Mean ([6]; 10 μm pores): 53.10 μm
- D10 [6, 14]: 25.63 μm
- D50 [6, 14]: 50.80 μm
- D90 [6, 14]: 81.03 μm

Structure (SMILES): CC(=O)Nc1ccc(O)cc1 [Paracetamol, paracetamol]
- CV % [7, 15]: 39.07 ± 1.660%
- Span [7, 15]: 1.100 ± 0.066
- Volume Mean D[4,3] ([7]; CXF, 10 μm pores, ethanol solution into 0.5% PEG P123 water, single runs 1-3): 45.37 μm and 44.28 μm and 41.17 μm
- D10 [7, 16]: 23.81 ± 0.894 μm
- D50 [7, 16]: 40.42 ± 0.573 μm
- D90 [7, 16]: 68.31 ± 3.604 μm
- Volume Mean D[4,3] [7, 16]: 43.61 ± 1.258 μm
- Span ([7]; CXF, 10 μm pores, single runs 1-3): 1.232 and 1.044 and 1.024
- StDev ([7]; of the size distribution, Average ± Standard Deviation of 3 runs): 17.05 ± 1.021 μm
- D10 [7, 17]: 24.12 μm and 25.18 μm and 22.13 μm
- D50 [7, 17]: 41.15 μm and 40.82 μm and 39.29 μm
- D90 [7, 17]: 74.81 μm and 67.77 μm and 62.36 μm

Structure (SMILES): C[C@]12C=CC(=O)C=C1CC[C@@H]1[C@@H]2[C@@H](O)C[C@@]2(C)[C@H]1CC[C@]2(O)C(=O)CO [Prednisolone]
- Span [8]: 0.72
- Volume Mean [8]: 45.73 μm
- D10 [8, 18]: 29.47 μm
- D50 [8, 18]: 43.76 μm
- D90 [8, 18]: 60.78 μm
